The test system of one series is HepG2. The experiment in a line: MTT colorimetric anti-proliferative assay. Conditions: Homo sapiens, HepG2, 72 h, read-out: IC50 HepG2.
For the next series, the system named is MCF-7. The series is described as follows: MTT colorimetric anti-proliferative assay. Conditions: Homo sapiens, MCF7, 72 h, read-out: IC50 MCF-7.
In another series the test system is HCT116. The series is described as follows: MTT colorimetric anti-proliferative assay. Particulars: Homo sapiens, HCT-116, 72 h, read-out: IC50 HCT116.
The next series addresses DNA. The series is described as follows: In vitro DNA/methyl green assay (DNA binding). Conditions: DNA/methyl green displacement, mean ± SD of three experiments. The text has this: The extremely potent 6e, 7b, 7c, 7e and 7g were further assessed for their DNA-binding according to the reported procedure using methyl green dye[21]^,[22]^,[49]. DNA-binding affinities results were presented as IC50 and briefed in Table 3.
Methyl green dye can bind DNA to form coloured DNA/methyl green reversible complex. These complexes at neutral pH are still stable. The methyl green is displaced from DNA upon intercalating agents addition. Colourless carbinol was formed by the addition of H2O to the dye, leading to a dramatic decrease in spectrophotometric absorbance. ΔA value (the difference between DNA/methyl green complex and free cabinol) provides the simplest means for detecting the DNA-binding affinity and relative binding strength. IC50 values were determined using the GraphPadPrism 5.0 software[21]^,[22]^,[49].

The next series concerns VERO normal cells. The experiment in a line: Cytotoxicity against VERO normal cell lines. Conditions: for IC50: Chlorocebus sabaeus, VERO normal cells, mean ± SD of three experiments; for fold safer in VERO normal cells compared to breast cancer cell lines (MCF-7): VERO versus MCF-7. It counts as cell-based. As to the method:
The cytotoxicity of these compounds against the cancer cell lines was from 3.41 to 9.51 µM. Derivatives 7b, 7c, 7e and 7g are respectively, 7.88, 10.81, 16.16 and 4.50 fold safer in VERO normal cells compared to breast cancer cell lines (MCF-7, the most sensitive cells).
The cytotoxicity assays were performed at Al-Azhar University, Pharmacology & Toxicology Department, Cairo, Egypt. Cancer cells from different cancer cell lines HCT-116, HepG2 and MCF-7, were purchased from ATCC, Manassas, USA and grown on the appropriate growth medium Roswell Park Memorial Institute medium (RPMI 1640) supplemented with […] of streptomycin, 100 units/mL of penicillin and 10% of heat-inactivated foetal bovine serum in a humidified, 5% (v/v) CO2 atmosphere at 37 °C Cytotoxicity assay by 3-[4,5-dimethylthiazole-2-yl]-2,5-diphenyltetrazolium bromide (MTT).
Cancer cell lines were trypsinized, counted and seeded into 96-well microtiter plates.

The target of a further series is human Topo II (Homo sapiens, UniProt P11388). The experiment in a line: In vitro topoisomerase II inhibitory activity. Particulars: supercoiled pHot1 DNA, mean ± SD of three experiments. It counts as biochemical. As to the method: A mixture of human Topo II (2 µl), substrate super coiled pHot1 DNA (0.25 µg), 50 µg/ml test compound (2 µl), and assay buffer (4 µl). […] Then, the DNA was run for 1–2 h on 1% agarose gel in BioRad gel electrophoresis system followed by staining with GelRedTM stain for 2 h and destained for 15 min with TAE buffer. The gel was imaged via BioRad’s Gel DocTMEZ system. Both supercoiled and linear strands of DNA were incorporated into the gel as markers for DNA-Topo II intercalators. By using the GraphPad Prism version 5.0, the values of IC50 were calculated. Each reaction was performed in duplicate, and at least three independent determinations of each IC50 were made.
human Topo II, sequence (P11388 whole entry): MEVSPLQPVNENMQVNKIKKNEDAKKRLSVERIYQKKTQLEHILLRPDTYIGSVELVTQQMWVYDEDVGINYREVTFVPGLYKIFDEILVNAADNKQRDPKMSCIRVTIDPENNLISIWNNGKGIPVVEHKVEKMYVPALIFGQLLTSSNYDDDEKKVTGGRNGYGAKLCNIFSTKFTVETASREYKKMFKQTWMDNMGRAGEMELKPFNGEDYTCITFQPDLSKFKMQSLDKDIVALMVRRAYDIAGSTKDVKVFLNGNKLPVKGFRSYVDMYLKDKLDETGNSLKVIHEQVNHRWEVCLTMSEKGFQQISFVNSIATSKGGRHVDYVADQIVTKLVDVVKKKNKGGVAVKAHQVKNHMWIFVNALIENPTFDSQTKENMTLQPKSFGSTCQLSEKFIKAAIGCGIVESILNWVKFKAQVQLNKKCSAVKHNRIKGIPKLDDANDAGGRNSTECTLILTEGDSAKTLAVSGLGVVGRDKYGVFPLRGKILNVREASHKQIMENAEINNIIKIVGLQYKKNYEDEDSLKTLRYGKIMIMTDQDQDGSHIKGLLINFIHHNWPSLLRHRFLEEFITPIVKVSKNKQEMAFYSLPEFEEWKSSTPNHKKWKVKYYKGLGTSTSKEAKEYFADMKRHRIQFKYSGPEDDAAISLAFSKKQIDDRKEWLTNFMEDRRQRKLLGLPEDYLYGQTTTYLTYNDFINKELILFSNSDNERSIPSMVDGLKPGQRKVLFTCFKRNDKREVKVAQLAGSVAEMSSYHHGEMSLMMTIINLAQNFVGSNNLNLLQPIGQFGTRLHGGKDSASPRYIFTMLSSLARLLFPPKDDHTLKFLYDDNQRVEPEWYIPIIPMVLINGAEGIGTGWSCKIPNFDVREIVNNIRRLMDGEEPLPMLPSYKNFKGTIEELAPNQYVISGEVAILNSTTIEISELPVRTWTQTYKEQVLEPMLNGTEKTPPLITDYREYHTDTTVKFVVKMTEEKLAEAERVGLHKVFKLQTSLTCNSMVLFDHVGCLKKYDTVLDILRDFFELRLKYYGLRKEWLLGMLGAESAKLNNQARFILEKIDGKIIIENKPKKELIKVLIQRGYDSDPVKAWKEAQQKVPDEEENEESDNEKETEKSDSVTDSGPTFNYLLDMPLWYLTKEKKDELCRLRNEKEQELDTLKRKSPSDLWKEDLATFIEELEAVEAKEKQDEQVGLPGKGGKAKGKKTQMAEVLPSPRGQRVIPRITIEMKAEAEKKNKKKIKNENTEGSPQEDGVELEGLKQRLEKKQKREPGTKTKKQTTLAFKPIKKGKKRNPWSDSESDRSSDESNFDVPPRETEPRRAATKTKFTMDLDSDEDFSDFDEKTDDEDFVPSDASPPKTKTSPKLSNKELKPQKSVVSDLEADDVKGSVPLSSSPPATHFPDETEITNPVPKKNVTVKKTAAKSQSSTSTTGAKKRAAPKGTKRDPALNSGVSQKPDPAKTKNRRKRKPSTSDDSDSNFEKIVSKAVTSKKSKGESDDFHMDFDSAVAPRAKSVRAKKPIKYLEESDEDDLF

The subject of series [1] is melanoma A375 cancer cells. Also noted: method as in PMID 18513976. Particulars: cited from earlier work.

As to `O=C(C=Cc1ccc([N+](=O)[O-])cc1)c1ccc(Nc2nc3ccccc3n3cnnc23)cc1` [Compound 6h, 1-{4-([1,2, 4]Triazolo[4,3-a]quinoxalin-4-ylamino)phenyl}-3–(4-nitrophenyl)prop-2-en-1-one], the melting point fell in the range of 261 to 263 °C. In addition, the IC50 with HepG2 is 15.6 ± 1.2 µM. Also, in the series on MCF-7, the 50% inhibitory concentration (IC50) came out at 11.7 ± 1.68 µM. The IC50 with HCT116 is 12.4 ± 1.1 µM.
For `O=C(C=Cc1ccccc1)c1ccc(Nc2nc3ccccc3n3cnnc23)cc1` [Compound 6a, 1-{4-([1,2, 4]Triazolo[4,3-a]quinoxalin-4-ylamino)phenyl}-3-phenylprop-2-en-1-one], in that order: 275 to 277 °C, 14.06 ± 0.13 µM, 10.1 ± 1.31 µM and 11.2 ± 1.2 µM.
For `COc1cccc2c1C(=O)c1c(O)c3c(c(O)c1C2=O)C[C@@](O)(C(=O)CO)C[C@@H]3O[C@H]1C[C@H](N)[C@H](O)[C@H](C)O1` [Doxorubicin, reference compound], the IC50 amounted to 31.3 ± 1.8 µM on DNA and 6.75 ± 0.4 µM in the series on MCF-7.
For the compound `Clc1ccc(C2CC(c3ccc(Nc4nc5ccccc5n5cnnc45)cc3)=NN2)cc1` (stereo not shown) [Compound 7b, N-{4-[5–(4-Chlorophenyl)-4,5-dihydro-1H-pyrazol-3-yl]phenyl}-[1,2, 4]triazolo[4,3-a]quinoxalin-4-amine], the IC50 in the series on HepG2 turned out to be 7.46 ± 0.13 µM; on DNA, 32.5 ± 3 µM; in the series with MCF-7 it was 5.88 ± 0.74 µM; with VERO normal cells, 46.32 ± 0.2 µM; in the series with HCT116, 6.9 ± 0.95 µM; against human Topo II, 1.05 ± 0.4 µM. In addition, in the series on VERO normal cells, the “fold safer in VERO normal cells compared to breast cancer cell lines (MCF-7)” value (from here on “fold safer in VERO normal cells”) turned out to be 7.88 fold.
Turning to `O=[N+]([O-])c1ccc(C2CC(c3ccc(Nc4nc5ccccc5n5cnnc45)cc3)=NN2)cc1` (stereo not shown) [Compound 7g, N-{4-[5–(4-Nitrophenyl)-4,5-dihydro-1H-pyrazol-3-yl]phenyl} -[1,2, 4]triazolo[4,3-a]quinoxalin-4-amine], the IC50 in the series with HepG2 worked out at 9.51 ± 1.1 µM; on DNA it was 36.5 ± 0.4 µM; with MCF-7, 8.62 ± 0.95 µM; in the series on VERO normal cells, 38.77 ± 0.16 µM; in the series on HCT116 it was 8.96 ± 0.37 µM; at human Topo II it was 1.22 ± 0.4 µM. In the series with VERO normal cells, the “fold safer in VERO normal cells” value turned out to be 4.50 fold.
Compound `COc1ccc(C=CC(=O)c2ccc(Nc3nc4ccccc4n4cnnc34)cc2)cc1` [Compound 6f, 1-{4-([1,2, 4]Triazolo[4,3-a]quinoxalin-4-ylamino)phenyl}-3–(4-methoxyphenyl)prop-2-en-1-one] had a melting point of 250 to 253 °C. Besides, the IC50 with HepG2 worked out at 18 ± 1.6 µM. Besides, the IC50 with MCF-7 was 13.2 ± 1.39 µM. The IC50 in the series on HCT116 is 16.4 ± 1.7 µM.
For `O=[N+]([O-])c1cccc(C2CC(c3ccc(Nc4nc5ccccc5n5cnnc45)cc3)=NN2)c1` (stereo not shown) [Compound 7f, N-{4-[5–(3-Nitrophenyl)-4,5-dihydro-1H-pyrazol-3-yl]phenyl} -[1,2, 4]triazolo[4,3-a]quinoxalin-4-amine], in that order: 195 to 197 °C, 17.3 ± 1.9 µM, 14.5 ± 1.03 µM and 16.2 ± 1.6 µM.
For `Cc1ccc(C2CC(c3ccc(Nc4nc5ccccc5n5cnnc45)cc3)=NN2)cc1` (stereo not shown) [Compound 7e, N-{4-[5-(p-Tolyl)-4,5-dihydro-1H-pyrazol-3-yl]phenyl}-[1,2, 4]triazolo[4,3-a]quinoxalin-4-amine], the IC50 in the series on HepG2 was 6.15 ± 1.2 µM; at DNA, 29.1 ± 2.2 µM; in the series on MCF-7, 3.41 ± 0.43 µM; with VERO normal cells it was 55.09 ± 0.16 µM; with HCT116, 5.75 ± 0.37 µM; on human Topo II it was 0.89 ± 0.4 µM. The “fold safer in VERO normal cells” value in the series on VERO normal cells turned out to be 16.16 fold.
For `CNc1nc2ccccc2n2c(CCc3ccccc3)cnc12` [EAPB0203], in series [1], the “fold more active than fotemustine” value is recorded as 110 fold and the “fold more active than imiquimod” value is listed as 45 fold.
For the compound `Fc1ccc(C2CC(c3ccc(Nc4nc5ccccc5n5cnnc45)cc3)=NN2)cc1` (stereo not shown) [Compound 7c, N-{4-[5–(4-Fluorophenyl)-4,5-dihydro-1H-pyrazol-3-yl]phenyl}-[1,2, 4]triazolo[4,3-a]quinoxalin-4-amine], the half-inhibitory concentration (IC50) with HepG2 came to 6.33 ± 0.14 µM; at DNA it was 31.2 ± 2.9 µM; in the series with MCF-7 it was 4.45 ± 0.14 µM; in the series with VERO normal cells, 48.11 ± 0.2 µM; in the series with HCT116, 6.22 ± 0.63 µM; against human Topo II, 0.94 ± 0.4 µM. In addition, the “fold safer in VERO normal cells” value in the series on VERO normal cells was determined as 10.81 fold.
`O=C(C=Cc1ccc(F)cc1)c1ccc(Nc2nc3ccccc3n3cnnc23)cc1` [Compound 6c, 1-{4-([1,2, 4]Triazolo[4,3-a]quinoxalin-4-ylamino)phenyl}-3–(4-fluorophenyl)prop-2-en-1-one]: the melting point fell in the range of 247 to 249 °C. The IC50 in the series on HepG2 stood at 11.3 ± 1.1 µM. Also, the IC50 in the series on MCF-7 is 8.61 ± 0.62 µM. The half-maximal inhibitory concentration (IC50) in the series on HCT116 came to 9.53 ± 0.93 µM.
As to `Cc1ccc(C=CC(=O)c2ccc(Nc3nc4ccccc4n4cnnc34)cc2)cc1` [Compound 6e, 1-{4-([1,2, 4]Triazolo[4,3-a]quinoxalin-4-ylamino)phenyl}-3-(p-tolyl)prop-2-en-1-one], the melting point was in the range of 245 to 247 °C. Moreover, the IC50 with HepG2 stood at 10.9 ± 1.9 µM. The IC50 on DNA is 38 ± 0.4 µM. In addition, the half-maximal inhibitory concentration (IC50) in the series on MCF-7 was found to be 9.95 µM. In addition, the IC50 in the series with HCT116 was 10.2 ± 1.7 µM. The compound further displayed an IC50 against human Topo II of 1.27 ± 0.4 µM.
On to `O=C(C=Cc1c(Cl)cccc1Cl)c1ccc(Nc2nc3ccccc3n3cnnc23)cc1` [Compound 6d, 1-{4-([1,2, 4]Triazolo[4,3-a]quinoxalin-4-ylamino)phenyl}-3–(2,6-dichlorophenyl)prop-2-en-1-one], for which the melting point lay within 260 to 263 °C. In addition, the IC50 with HepG2 amounted to 16.9 ± 1.4 µM. In the series on MCF-7, the IC50 was 14.6 ± 1.57 µM. Besides, the concentration for half-maximal inhibition (IC50) in the series with HCT116 worked out at 19.4 ± 1.7 µM.
For `CC(=O)c1ccc(Nc2nc3ccccc3n3cnnc23)cc1` [Compound 5, 1-{4-([1,2, 4]Triazolo[4,3-a]quinoxalin-4-ylamino)phenyl}ethan-1-one], in that order: 171 to 172 °C, 12.7 ± 0.13 µM, 10.3 ± 1.28 µM and 11.4 ± 1.4 µM.
The like results for `O=C(C=Cc1cccc([N+](=O)[O-])c1)c1ccc(Nc2nc3ccccc3n3cnnc23)cc1` [Compound 6g, 1-{4-([1,2, 4]Triazolo[4,3-a]quinoxalin-4-ylamino)phenyl}-3–(3-nitrophenyl)prop-2-en-1-one] were, in that order, 257 to 259 °C, 17.2 ± 1.5 µM, 12.2 ± 1.03 µM and 13.7 ± 1.7 µM.
With `c1ccc(C2CC(c3ccc(Nc4nc5ccccc5n5cnnc45)cc3)=NN2)cc1` (stereo not shown) [Compound 7a, N-{4–(5-Phenyl-4,5-dihydro-1H-pyrazol-3-yl)phenyl}-[1,2, 4]triazolo[4,3-a]quinoxalin-4-amine], the melting point lay within 150 to 152 °C. In the series with HepG2, the IC50 came out at 20.3 ± 1.9 µM. The half-inhibitory concentration (IC50) with MCF-7 worked out at 15.4 ± 1.42 µM. Further, the IC50 in the series on HCT116 came out at 18.2 ± 1.6 µM.
For `Clc1cccc(Cl)c1C1CC(c2ccc(Nc3nc4ccccc4n4cnnc34)cc2)=NN1` (stereo not shown) [Compound 7d, N-{4-[5–(2,6-Dichlorophenyl)-4,5-dihydro-1H-pyrazol-3-yl]phenyl}-[1,2, 4]triazolo[4,3-a]quinoxalin-4-amine], in that order: 176 to 178 °C, 12 ± 1.2 µM, 7.56 ± 0.92 µM and 10.2 ± 0.22 µM.
For `O=C(C=Cc1ccc(Cl)cc1)c1ccc(Nc2nc3ccccc3n3cnnc23)cc1` [Compound 6b, 1-{4-([1,2, 4]Triazolo[4,3-a]quinoxalin-4-ylamino)phenyl}-3–(4-chlorophenyl)prop-2-en-1-one], in that order: 240 to 243 °C, 35.2 ± 3.3 µM, 25.8 ± 2.8 µM and 31.2 ± 1.4 µM.
